Assay results from patent publication US20230295165A1, “COMPOUNDS” (The Provost, Fellows, Foundation Scholars, and the other …, priority 2020, published 2023).

Experiments:
[1] = tested on: RA synovial primary fibroblasts (RASFCs); test: Synovial fibroblast assay, IL-6 ELISA on TNF-treated RASFC supernatants; assay type: cell-based, human; details: 200 μm compound, TNF 10 ng/ml, supernatants at 72 hr, n=3 RASFCs, DMSO vehicle = 100%
Experimental: To assess the compounds in human rheumatoid arthritis samples the following protocol was employed:
Isolation of Primary Fibroblasts (RASFCs): RA synovial biopsies were digested with 1 mg/ml collagenase type 1 (Worthington Biochemical, Freehold, NJ, USA) in RPMI-1640 (Gibco-BRL, Paisley, UK) for 4 hr at 37° C. in humidified air with 5% CO2. Dissociated cells were grown to confluence in RPMI 1640, 10% FCS (Gibco-BRL), 10 ml of 1 mmol/l HEPES (Gibco-BRL), penicillin (100 units/ml; Bioscience), streptomycin (100 units/ml; Bioscience) and fungizone (0.25 μg/ml; Bioscience) before passaging. Cells were used between passages 3-8.
Compounds (200 μm) were Tested on n=3 RASFCs
RASFCs were grown to 80% confluency in 48 well plates. RASFCs were treated with TNF (10 ng/ml) in the presence of 200 μm of each compound. Media was replaced after 24 h and fresh media and compound was added. Cell supernatants were collected at 72 hr time point. DMSO treated cells were used as a vehicle control (Red dotted line represents DMSO control). IL-6 ELISA: Levels of pro-inflammatory cytokine IL6 were measured in cultured RASFC supernatants by specific ELISA (R&D systems, UK) according to manufacturer's conditions.
This assay measures the production of IL-6 as an indication of immune system activation: the lower the value the better from the point of view of alleviating RA symptoms. All compounds of the invention show an effect compared to the DMSO vehicle that represents no treatment. […]

[2] = molecular target: T1, queuine-tRNA ribosyltransferase enzyme complex (hQTRT1:hQTRT2) (Homo sapiens, UniProt Q9BXR0); test: [8-14C] guanine displacement assay (tRNA*); assay type: biochemical; details: 50 μM compound, 100 nM hQTRT1:hQTRT2, 30 mins at 37° C.; background ≤2%; ≥5% counts as positive substrate for TGT
T1 construct: polyhistidine tag (N); made in house; host or cells: E. coli BL21(DE3) tgt::Kmr
Experimental: Compounds capable of acting as a queuine-tRNA ribosyltransferase enzyme complex substrate may be identified by use of a displacement assay as described below:
Production of [8-^14C] Guanine Labeled tRNA (tRNA*)
Before adding the 8-[^14C] guanine solution to the reaction the solution was neutralised with an equal volume (vol/vol) 0.01 M NaOH, as the [8-^14C] Guanine is supplied in 0.01 M HCl aqueous solution. In vitro synthesised human tyrosyl tRNA was prepared by T7 transcription in ultrapure nuclease-free water as described previously (Alqasem et al., 2020). Recombinant human QTRT1 enzyme containing an N-terminalpolyhistidine tag and human QTRT2 containing a C-terminal TEV-Strep-Tag®II tag were produced in BL21(DE3) tgt::Kmr cells as described previously (Alqasem et al., 2020).
The reaction was incubated for 1 hour at 37° C. […] The tRNA* pellet was resuspended in 30 μL nuclease-free water and the concentration measured spectrophotometrically at A260. […]
After 30 mins the reactions were quenched by mixing with 2.5 ml ice-cold 10% trichloroacetic acid (TCA) and placed on ice for one hour to precipitate the tRNA. […] The vacuum manifold was disassembled, the filters recovered and dried again at room temperature before being placed in scintillation vials containing 10 ml of Ecoscint A and radioactivity levels measured by scintillation counting. […]

T1 sequence (Q9BXR0 whole entry): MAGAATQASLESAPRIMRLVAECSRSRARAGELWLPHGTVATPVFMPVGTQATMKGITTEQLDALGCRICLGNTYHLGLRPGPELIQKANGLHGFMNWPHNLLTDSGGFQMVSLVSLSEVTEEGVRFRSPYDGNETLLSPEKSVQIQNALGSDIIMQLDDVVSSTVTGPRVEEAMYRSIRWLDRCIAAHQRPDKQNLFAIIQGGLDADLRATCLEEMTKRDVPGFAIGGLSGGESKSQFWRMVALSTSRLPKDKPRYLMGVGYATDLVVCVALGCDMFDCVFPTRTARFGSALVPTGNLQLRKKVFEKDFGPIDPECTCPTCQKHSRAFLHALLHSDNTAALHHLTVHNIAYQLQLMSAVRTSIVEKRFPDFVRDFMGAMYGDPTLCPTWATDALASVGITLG
T1 sequence (Q9H974 whole entry partner): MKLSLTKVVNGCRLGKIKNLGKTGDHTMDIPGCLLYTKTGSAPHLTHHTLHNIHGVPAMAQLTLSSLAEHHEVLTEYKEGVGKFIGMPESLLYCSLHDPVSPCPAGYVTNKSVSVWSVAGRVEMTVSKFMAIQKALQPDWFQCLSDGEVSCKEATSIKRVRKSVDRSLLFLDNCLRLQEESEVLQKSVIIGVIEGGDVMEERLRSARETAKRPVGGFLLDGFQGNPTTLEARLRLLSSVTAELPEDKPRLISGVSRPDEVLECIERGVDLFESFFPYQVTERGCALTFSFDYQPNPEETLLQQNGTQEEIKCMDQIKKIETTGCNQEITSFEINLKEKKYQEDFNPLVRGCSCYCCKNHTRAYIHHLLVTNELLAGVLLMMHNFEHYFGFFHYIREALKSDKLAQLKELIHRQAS

Row | displacement of the [14C] guanine [2] [%] | SMILES | Level of IL6 expression compared to vehicle [1]
1 | – | CC(C)(CCNCc1c[nH]c2nc(N)[nH]c(=O)c12)c1ccccc1.Cl [Example 1, N-((2-amino-4-oxo-4,7-dihydro-3H-pyrrolo[2,3-d]pyrimidin-5-yl)methyl)-3-methyl-3-phenylbutan-1-ammonium chloride] | Reduction to 37%
2 | – | Cl.Nc1nc2[nH]cc(CNCCNc3ccccc3)c2c(=O)[nH]1 [Example 5, N-((2-amino-4-oxo-4,7-dihydro-3H-pyrrolo[2,3-d]pyrimidin-5-yl)methyl)-2-(phenylamino)ethan-1-aminium chloride] | Reduction to 48%
3 | – | Cl.Nc1nc2[nH]cc(CNCCC(=O)c3ccccc3)c2c(=O)[nH]1 [Example 7, N-((2-amino-4-oxo-4,7-dihydro-3H-pyrrolo[2,3-d]pyrimidin-5-yl)methyl)-3-oxo-3-phenylpropan-1-ammonium chloride] | Reduction to 32%
4 | – | Cl.Nc1nc2[nH]cc(CNCCC(c3ccccc3)c3ccccc3)c2c(=O)[nH]1 [Example 10, N-((2-amino-4-oxo-4,7-dihydro-3H-pyrrolo[2,3-d]pyrimidin-5-yl)methyl)-3,3-diphenylpropan-1-ammonium chloride] | Reduction to 56%
5 | – | Cl.Nc1nc2[nH]cc(CNCC[C@@H](O)c3ccccc3)c2c(=O)[nH]1 [Example 12, (R)-N-((2-amino-4-oxo-4,7-dihydro-3H-pyrrolo[2,3-d]pyrimidin-5-yl)methyl)-3-hydroxy-3-phenylpropan-1-aminium chloride] | Reduction to 55%
6 | – | Cl.Nc1nc2[nH]cc(CNCC[C@H](O)c3ccccc3)c2c(=O)[nH]1 [Example 13, (S)-N-((2-amino-4-oxo-4,7-dihydro-3H-pyrrolo[2,3-d]pyrimidin-5-yl)methyl)-3-hydroxy-3-phenylpropan-1-aminium chloride] | Reduction to 67%
7 | – | C[C@@H]1CCN(C(=O)CC#N)C[C@@H]1N(C)c1ncnc2[nH]ccc12 [Positive control (Tofacitinib), Tofacitinib, reference compound] | Reduction to 57%
8 | > 98 | Nc1nc2[nH]cc(CN[C@H]3C=C[C@H](O)[C@@H]3O)c2c(=O)[nH]1 [queuine base, queuine] | –
